Experiment: Purity and stability test (content of impurities on storage)
Format: physicochemical
Details: for Content of impurities in the initial sample: before storage; for 0-8° C., content of impurities in the sample at 7 day: sealed containers at 0-8° C. for 7 days
Experimental: In this example, the purity and stability of the samples obtained in Comparative Examples and Examples were compared. The specific method is described as follows:
And then the content of impurities in each sample was analyzed.

Row | Structure (SMILES) | Content of impurities in the initial sample [%] | 0-8° C., content of impurities in the sample at 7 day [%]
1 | CC(O)C1NC(=O)C(N)CC(O)C(O)NC(=O)C2C(O)C(C)CN2C(=O)C(C(O)CC(N)=O)NC(=O)C(C(O)C(O)c2ccc(O)c(OS(=O)(=O)O)c2)NC(=O)C2CC(O)CN2C1=O (single isomer, unassigned) [Comparative Example 7] | 2.4 | 4.7
2 | C[C@@H](O)[C@@H]1NC(=O)[C@@H](N)C[C@@H](O)[C@@H](O)NC(=O)[C@@H]2[C@@H](O)[C@@H](C)CN2C(=O)[C@H]([C@H](O)CC(N)=O)NC(=O)[C@H]([C@H](O)[C@@H](O)c2ccc(O)c(OS(=O)(=O)O)c2)NC(=O)[C@@H]2C[C@@H](O)CN2C1=O [Example 1] | 2.5 | 4.8
3 | CC(O)C1NC(=O)C(N)CC(O)C(O)NC(=O)C2C(O)C(C)CN2C(=O)C(C(O)CC(N)=O)NC(=O)C(C(O)C(O)c2ccc(O)c(OS(=O)(=O)O)c2)NC(=O)C2CC(O)CN2C1=O (single isomer, unassigned) [Comparative Example 5] | 2.1 | 3.6
4 | CC(O)C1NC(=O)C(N)CC(O)C(O)NC(=O)C2C(O)C(C)CN2C(=O)C(C(O)CC(N)=O)NC(=O)C(C(O)C(O)c2ccc(O)c(OS(=O)(=O)O)c2)NC(=O)C2CC(O)CN2C1=O (single isomer, unassigned) [Comparative Example 3] | 1.9 | 3.2
5 | CC(O)C1NC(=O)C(N)CC(O)C(O)NC(=O)C2C(O)C(C)CN2C(=O)C(C(O)CC(N)=O)NC(=O)C(C(O)C(O)c2ccc(O)c(OS(=O)(=O)O)c2)NC(=O)C2CC(O)CN2C1=O (single isomer, unassigned) [Comparative Example 4] | 1.8 | 2.9
6 | CC(O)C1NC(=O)C(N)CC(O)C(O)NC(=O)C2C(O)C(C)CN2C(=O)C(C(O)CC(N)=O)NC(=O)C(C(O)C(O)c2ccc(O)c(OS(=O)(=O)O)c2)NC(=O)C2CC(O)CN2C1=O (single isomer, unassigned) [Comparative Example 2] | 1.9 | 3.4
7 | CC(O)C1NC(=O)C(N)CC(O)C(O)NC(=O)C2C(O)C(C)CN2C(=O)C(C(O)CC(N)=O)NC(=O)C(C(O)C(O)c2ccc(O)c(OS(=O)(=O)O)c2)NC(=O)C2CC(O)CN2C1=O (single isomer, unassigned) [Comparative Example 6] | 2.4 | 4.1
